Calls of active or inactive are those of the source. The rule behind the calls is not given here.
Test system: CCRIS mutagenicity, Ames/micronucleus/aberration tests
Assay: CCRIS mutagenicity studies

O=C(O)C(Cl)Cl
mutagenic call (End Point: IN VITRO CHROMOSOMAL ABERRATIONS, Test System: CHL CELLS, Metabolic Activation: RAT, LIVER, S-9, SODIUM PHENOBARBITAL AND 5,6-BENZOFLAVONE): active; positive (structural changes)
mutagenic call (End Point: In vivo micronucleus, Test System: Normochromatic erythrocytes, Species: Mouse, Strain/Sex: B6C3F1/Male, Route: Oral): inactive; negative
mutagenic call (End Point: In vivo micronucleus, Test System: Peripheral blood normochromatic erythrocytes, Species: Mouse, Strain/Sex: B6C3F1/Female, Route: Oral): inactive; negative; increase in frequency of micronucleated erythrocytes was judged to be
mutagenic call (End Point: In vivo micronucleus, Test System: Peripheral blood normochromatic erythrocytes, Species: Mouse, Strain/Sex: B6.129-TRP53TM1 BRD/Female, Route: Oral): inactive; negative
mutagenic call (End Point: In vivo micronucleus, Test System: Peripheral blood normochromatic erythrocytes, Species: Mouse, Strain/Sex: B6.129-TRP53TM1 BRD/Male, Route: Oral): inactive; negative
mutagenic call (End Point: In vivo micronucleus, Test System: Peripheral blood normochromatic erythrocytes, Species: Mouse, Strain/Sex: FVB/N-TgN (v-Ha-ras)Led (Tg.AC) hemizygous/Female, Route: Dermal): inactive; negative
mutagenic call (End Point: In vivo micronucleus, Test System: Peripheral blood normochromatic erythrocytes, Species: Mouse, Strain/Sex: FVB/N-TgN (v-Ha-ras)Led (Tg.AC) hemizygous/Male, Route: Dermal): inactive; negative
mutagenic call (End Point: In vivo micronucleus, Test System: Peripheral blood normochromatic erythrocytes, Species: Mouse, Strain/Sex: Tg.AC hemizygous/Female, Route: Oral): inactive; negative
mutagenic call (End Point: In vivo micronucleus, Test System: Peripheral blood normochromatic erythrocytes, Species: Mouse, Strain/Sex: Tg.AC hemizygous/Male, Route: Oral): inactive; negative
mutagenic call (Test System: AMES SALMONELLA TYPHIMURIUM, Strain/Indicator: RSJ100, Metabolic Activation: NONE, Method: PREINCUBATION): active; positive
mutagenic call (Test System: AMES SALMONELLA TYPHIMURIUM, Strain/Indicator: RSJ100, Metabolic Activation: RAT LIVER S-9, Method: PREINCUBATION): inactive; negative
mutagenic call (Test System: AMES SALMONELLA TYPHIMURIUM, Strain/Indicator: TA98, Metabolic Activation: NONE, Method: STANDARD PLATE): inactive; negative
mutagenic call (Test System: AMES SALMONELLA TYPHIMURIUM, Strain/Indicator: TA98, Metabolic Activation: RAT LIVER S-9, Method: PREINCUBATION): inactive; negative
mutagenic call (Test System: AMES SALMONELLA TYPHIMURIUM, Strain/Indicator: TA98, Metabolic Activation: RAT, LIVER, S-9, AROCLOR 1254, Method: STANDARD PLATE): inactive; negative
mutagenic call (Test System: AMES SALMONELLA TYPHIMURIUM, Strain/Indicator: TA98, Metabolic Activation: RAT, LIVER, S-9, PHENOBARBITAL AND 5,6-BENZOFLAVONE, Method: PREINCUBATION): inactive; negative
mutagenic call (Test System: AMES SALMONELLA TYPHIMURIUM, Strain/Indicator: TA100, Metabolic Activation: NONE, Method: BAG VAPORIZATION): active; positive
mutagenic call (Test System: AMES SALMONELLA TYPHIMURIUM, Strain/Indicator: TA100, Metabolic Activation: NONE, Method: FLUCTUATION TEST): active; positive
mutagenic call (Test System: AMES SALMONELLA TYPHIMURIUM, Strain/Indicator: TA100, Metabolic Activation: NONE, Method: PREINCUBATION): active; positive
mutagenic call (Test System: AMES SALMONELLA TYPHIMURIUM, Strain/Indicator: TA100, Metabolic Activation: NONE, Method: STANDARD PLATE): inactive; negative
mutagenic call (Test System: AMES SALMONELLA TYPHIMURIUM, Strain/Indicator: TA100, Metabolic Activation: RAT LIVER S-9, Method: PREINCUBATION): active; positive
mutagenic call (Test System: AMES SALMONELLA TYPHIMURIUM, Strain/Indicator: TA100, Metabolic Activation: RAT, LIVER, S-9, AROCLOR 1254, Method: BAG VAPORIZATION): active; positive
mutagenic call (Test System: AMES SALMONELLA TYPHIMURIUM, Strain/Indicator: TA100, Metabolic Activation: RAT, LIVER, S-9, AROCLOR 1254, Method: FLUCTUATION TEST): active; positive
mutagenic call (Test System: AMES SALMONELLA TYPHIMURIUM, Strain/Indicator: TA100, Metabolic Activation: RAT, LIVER, S-9, AROCLOR 1254, Method: STANDARD PLATE): inactive; negative
mutagenic call (Test System: AMES SALMONELLA TYPHIMURIUM, Strain/Indicator: TA100, Metabolic Activation: RAT, LIVER, S-9, PHENOBARBITAL AND 5,6-BENZOFLAVONE, Method: PREINCUBATION): inactive; negative
mutagenic call (Test System: AMES SALMONELLA TYPHIMURIUM, Strain/Indicator: TA102, Metabolic Activation: NONE, Method: STANDARD PLATE): inactive; negative
mutagenic call (Test System: AMES SALMONELLA TYPHIMURIUM, Strain/Indicator: TA102, Metabolic Activation: RAT LIVER S-9, AROCLOR 1254, Method: STANDARD PLATE): inactive; negative
mutagenic call (Test System: AMES SALMONELLA TYPHIMURIUM, Strain/Indicator: TA102, Metabolic Activation: RAT, LIVER, S-9, PHENOBARBITAL AND 5,6-BENZOFLAVONE, Method: STANDARD PLATE): inactive; negative
mutagenic call (Test System: AMES SALMONELLA TYPHIMURIUM, Strain/Indicator: TA1535, Metabolic Activation: NONE, Method: STANDARD PLATE): inactive; negative
mutagenic call (Test System: AMES SALMONELLA TYPHIMURIUM, Strain/Indicator: TA1535, Metabolic Activation: RAT, LIVER, S-9, AROCLOR 1254, Method: STANDARD PLATE): inactive; negative
mutagenic call (Test System: AMES SALMONELLA TYPHIMURIUM, Strain/Indicator: TA1537, Metabolic Activation: NONE, Method: STANDARD PLATE): inactive; negative
mutagenic call (Test System: AMES SALMONELLA TYPHIMURIUM, Strain/Indicator: TA1537, Metabolic Activation: RAT, LIVER, S-9, AROCLOR 1254, Method: STANDARD PLATE): inactive; negative
mutagenic call (Test System: AMES SALMONELLA TYPHIMURIUM, Strain/Indicator: TA2638, Metabolic Activation: RAT, LIVER, S-9, PHENOBARBITAL AND 5,6-BENZOFLAVONE, Method: STANDARD PLATE): inactive; negative
mutagenic call (Test System: Ames Salmonella typhimurium, Strain/Indicator: TA98, Metabolic Activation: Hamster, liver, S-9, Aroclor 1254 (30%), Method: Preincubation): inactive; negative
mutagenic call (Test System: Ames Salmonella typhimurium, Strain/Indicator: TA98, Metabolic Activation: Hamster, liver, S-9, Aroclor 1254, 30%, Method: Preincubation): inactive; negative
mutagenic call (Test System: Ames Salmonella typhimurium, Strain/Indicator: TA98, Metabolic Activation: Rat, liver, S-9, Aroclor 1254, 30%, Method: Preincubation): inactive; negative
mutagenic call (Test System: Ames Salmonella typhimurium, Strain/Indicator: TA100, Metabolic Activation: Hamster, liver, S-9, Aroclor 125, 30%, Method: Preincubation): inactive; negative
mutagenic call (Test System: Ames Salmonella typhimurium, Strain/Indicator: TA100, Metabolic Activation: Hamster, liver, S-9, Aroclor 1254, 30%, Method: Preincubation): inactive; negative
mutagenic call (Test System: Ames Salmonella typhimurium, Strain/Indicator: TA100, Metabolic Activation: None, Method: Preincubation): active; positive
mutagenic call (Test System: Ames Salmonella typhimurium, Strain/Indicator: TA100, Metabolic Activation: Rat, liver, S-9, Aroclor 1254, 30%, Method: Preincubation): inactive; negative
mutagenic call (Test System: Ames Salmonella typhimurium, Strain/Indicator: TA1535, Metabolic Activation: None, Method: Preincubation): active; positive, three trials performed; ntp described results as positive, weakly posi
mutagenic call (Test System: E. COLI, Strain/Indicator: WP2 (PKM101), Metabolic Activation: RAT, LIVER, S-9, PHENOBARBITAL AND 5,6-BENZOFLAVONE, Method: STANDARD PLATE): inactive; negative
mutagenic call (Test System: E. COLI, Strain/Indicator: WP2 UVRA (PKM101), Metabolic Activation: RAT, LIVER, S-9, PHENOBARBITAL AND 5,6-BENZOFLAVONE, Method: STANDARD PLATE): inactive; negative
mutagenic call (Test System: E. COLI, Strain/Indicator: WP2 UVRA, Metabolic Activation: NONE, Method: STANDARD PLATE): inactive; negative
mutagenic call (Test System: E. COLI, Strain/Indicator: WP2 UVRA, Metabolic Activation: RAT, LIVER, S-9, AROCLOR 1254, Method: STANDARD PLATE): inactive; negative
mutagenic call (Test System: MOUSE LYMPHOMA, Strain/Indicator: L5178Y (TK+/TK- -3.7.2C), Metabolic Activation: NONE): active; positive
mutagenic call (Test System: MOUSE LYMPHOMA, Strain/Indicator: L5178Y (TK+/TK-), Metabolic Activation: NONE, Method: SUSPENSION/PLATE): inactive; negative
mutagenic call (Test System: MOUSE LYMPHOMA, Strain/Indicator: L5187Y (TK+/TK-), Metabolic Activation: RAT, LIVER, S-9, AROCLOR 1254, Method: SUSPENSION/PLATE): inactive; negative

Source: PubChem BioAssay AID1259407 (Chemical Carcinogenesis Research Information System (CCRIS), 2018)
